From ChEMBL document CHEMBL1201862, “PubChem BioAssay data set” (2004) come the findings set out here.

Assay in all cases: growth of human tumour cells (NCI), 48 h
In experiment [1] the test system is NCI/ADR-RES.
The test system of experiment [2] is T47D.
Experiment [3] relates to U-251.
Experiment [4] relates to A498.
Experiment [5] has as its system MDA-MB-231.
The subject of experiment [6] is OVCAR-8.
Experiment [7] concerns UACC-62.
In experiment [8] the test system is HL-60.
For experiment [9], the system named is PC-3.
The test system of experiment [10] is SK-MEL-2.
Experiment [11] has as its system MDA-N.
Experiment [12] has as its system OVCAR-3.
The test system of experiment [13] is HOP-92.
Experiment [14] concerns DU-145.
The test system of experiment [15] is MCF7.

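Five concentrations, 48 hours, 96-well plates. GI50 is the concentration that inhibits growth by half.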 Activity calls are given as the source filed them. No stated cut-off is given here; in the data, active = GI50 up to about 1.1 µM and inactive = higher. Bounds are passed on as bounds.

As to `COc1ccc(CCCC(=O)O)c(C)c1`, the GI50 is > 100 µM (inactive) in [1]; 50.8 µM (inactive) in experiment [2]; 20.8 µM (inactive) in experiment [3]; 14.3 µM (inactive) in experiment [4]; 36.1 µM (inactive) in experiment [5]; 74.6 µM (inactive) in [6]. For the same molecule, the GI50 in experiment [7] was 36.8 µM (inactive); in experiment [8], 37.5 µM (inactive); in experiment [9], 37.9 µM (inactive); in [10], 39 µM (inactive); in [11], 62.4 µM (inactive); in experiment [12], 30.3 µM (inactive). The GI50 was 27.4 µM (inactive) in experiment [13] and 21.1 µM (inactive) in experiment [14].

As to `O=C(O)C(CCc1ccccc1)N1C(=O)c2ccccc2C1=O` (configuration not stated), the GI50 in [1], in experiment [2], in experiment [3], in experiment [4], in experiment [5] and in [15] was > 100 µM (inactive) in each case. Moreover, the GI50 in [6], in experiment [7], in [8], in [9], in [10] and in experiment [11] was > 100 µM (inactive) in each case. Besides, the GI50 in experiment [12], in experiment [13] and in experiment [14] was > 100 µM (inactive) in each case.

Take `CCOC(=O)CSc1c(C(=O)OCC)c(=O)n(-c2ccccc2)c(=S)n1-c1ccccc1`: the GI50 in experiment [1] is 2.99 µM (inactive); in experiment [2], > 100 µM (inactive); in experiment [3] it was 13.3 µM (inactive); in experiment [15] it was 15.2 µM (inactive); in experiment [6] it was 41 µM (inactive); in [7], 36.3 µM (inactive). Moreover, the GI50 in [8] was 17.1 µM (inactive); in experiment [9] it was 4.61 µM (inactive); in [10], 83 µM (inactive); in experiment [11], > 100 µM (inactive); in experiment [12], > 100 µM (inactive); in experiment [13] it was 0.0371 µM (active). Moreover, the GI50 in [14] is 82 µM (inactive).

As for `COC1/C=C/C(C)C(C(C)C(OC)C(C)CCC(=O)C(C)C(C/C=C/N(C)C=O)OC)OC(=O)/C=C/C=C(\C)CC(OC)CC2=CC(=O)O[C@H](C2)C(C)C(OC)CC(OC)/C=C/C(C)C(OC)C1` (some centres not stated), the GI50 was 0.0107 µM (active) in experiment [1]; 0.0292 µM (active) in [15]; 0.0224 µM (active) in experiment [6]; 0.00752 µM (active) in [7]; 0.00989 µM (active) in [9]; 0.00733 µM (active) in experiment [10]. For the same molecule, the values for the GI50 in experiment [13] and in [14] were 0.0142 µM (active) and 0.191 µM (active), respectively.

Consider `CCOc1cc(/C=N\O)cc(/C=N/O)c1O`, for which the GI50 in [1] is 41.7 µM (inactive); in [2], 21.9 µM (inactive); in [3], 25.6 µM (inactive); in experiment [4] it was 18 µM (inactive); in [5], 69.8 µM (inactive); in [15], 9.68 µM (inactive). The GI50 is 25.2 µM (inactive) in experiment [6]; 50.7 µM (inactive) in experiment [7]; 18.1 µM (inactive) in experiment [8]; 28.2 µM (inactive) in experiment [9]; 18.1 µM (inactive) in experiment [10]; 35.6 µM (inactive) in [11]. For the same molecule, the GI50 in experiment [12] was 31.1 µM (inactive); in experiment [13] it was 23.8 µM (inactive); in experiment [14] it was 68.5 µM (inactive).

For the molecule `CN(C)c1ccc(C2SCC(=O)N2NS(=O)(=O)c2cccc(C(=O)O)c2)cc1` (configuration not stated), the GI50 in experiment [2] was > 100 µM (inactive); in experiment [3] it was > 100 µM (inactive); in experiment [5], > 100 µM (inactive); in experiment [15], 64.9 µM (inactive); in experiment [6] it was 17.7 µM (inactive); in [7], > 100 µM (inactive). Moreover, the GI50 was 16.3 µM (inactive) in experiment [8]; > 100 µM (inactive) in [9]; > 100 µM (inactive) in [10]; > 100 µM (inactive) in experiment [11]; > 100 µM (inactive) in experiment [12]; > 100 µM (inactive) in experiment [13]. The GI50 in [14] was > 100 µM (inactive).

Consider `FC(F)(F)C(C1=NC(C(F)(F)F)(C(F)(F)F)N=C(N2CCOCC2)O1)C(F)(F)F`, for which the GI50 in experiment [1] is 16.6 µM (inactive); in [2] it was 23.4 µM (inactive); in experiment [3], 19.9 µM (inactive); in experiment [5], 14.4 µM (inactive); in experiment [15], > 10 µM (inactive); in experiment [6] it was 15.3 µM (inactive). The GI50 in [7] is 13.5 µM (inactive); in experiment [8], 5.57 µM (inactive); in [9], 16.9 µM (inactive); in experiment [10] it was 22.2 µM (inactive); in experiment [11], 19.1 µM (inactive); in [12], 25.5 µM (inactive). The GI50 in experiment [13] was 25.8 µM (inactive); in [14], 35.5 µM (inactive).

For the molecule `Cc1cn(Cc2cnnn2CC2OC(n3cc(C)c(=O)[nH]c3=O)CC2O)c(=O)[nH]c1=O` (configuration not stated), the GI50 in experiment [1], in [2], in experiment [3], in experiment [4], in experiment [5] and in [15] was > 100 µM (inactive) each time. For the same molecule, the GI50 in [6], in [7], in experiment [9], in experiment [10], in [11] and in [12] was > 100 µM (inactive) throughout. Besides, the GI50 in experiment [13] and in [14] was > 100 µM (inactive) each time.

For the molecule `C=C1CC(C)(COc2ccc3c(C)cc(=O)oc3c2)OC1=O` (configuration not stated), the GI50 was 1.95 µM (inactive) in [1]; 1.74 µM (inactive) in [2]; 10.9 µM (inactive) in experiment [3]; 3.92 µM (inactive) in experiment [5]; 0.706 µM (active) in experiment [15]; 3.17 µM (inactive) in [6]. In addition, the GI50 was 1.69 µM (inactive) in [7]; 0.232 µM (active) in [8]; 2.39 µM (inactive) in [9]; 1.65 µM (inactive) in [10]; 0.695 µM (active) in [11]; 2.31 µM (inactive) in experiment [12]. For the same molecule, the GI50 in experiment [13] is 1.09 µM (active); in experiment [14], 2.36 µM (inactive).

Consider `COc1ccc(NCC(=O)Nn2c(-c3ccccc3)nc3ccccc3c2=O)cc1`, for which the GI50 in [1] is 25.2 µM (inactive); in [2], 29.9 µM (inactive); in [3] it was 28.7 µM (inactive); in experiment [4], 23.3 µM (inactive); in [5] it was 19 µM (inactive); in experiment [15] it was 18.2 µM (inactive). For the same molecule, the GI50 is 31.9 µM (inactive) in experiment [6]; 14.1 µM (inactive) in [7]; 42.3 µM (inactive) in experiment [8]; 35.6 µM (inactive) in experiment [9]; 63.4 µM (inactive) in experiment [11]; 60.7 µM (inactive) in [12]. Further, the figures for the GI50 in [13] and in experiment [14] were 25.4 µM (inactive) and > 100 µM (inactive), respectively.

Take `N#Cc1c(-c2ccccc2)cn(C(=O)c2ccccc2)c1N`: the GI50 in experiment [1], in [3], in experiment [5], in experiment [15], in experiment [6] and in experiment [7] was > 100 µM (inactive) in each case. The GI50 in experiment [8], in [9], in experiment [10], in experiment [11], in [12] and in [13] was > 100 µM (inactive) in each case. In addition, the GI50 in experiment [14] is > 100 µM (inactive).

In the case of `O=c1c(-c2ccccc2)c(SCCCN2CCCCC2)n(-c2ccccc2)c(=S)n1-c1ccccc1`, the GI50 in experiment [1] is 16.5 µM (inactive); in experiment [3] it was 15.6 µM (inactive); in [4], 15.1 µM (inactive); in experiment [5], 14.5 µM (inactive); in [15], 15.6 µM (inactive); in [6] it was 18.6 µM (inactive). In addition, the GI50 was 16.1 µM (inactive) in experiment [7]; 16.6 µM (inactive) in experiment [8]; 16.5 µM (inactive) in experiment [9]; 15.9 µM (inactive) in experiment [10]; 18.2 µM (inactive) in experiment [12]; 12.1 µM (inactive) in experiment [13]. For the same molecule, the GI50 in [14] was 17.7 µM (inactive).

Turning to `c1ccc(CSC(SCc2ccccc2)c2cccc3ccccc23)cc1`, the GI50 in experiment [1] was > 10 µM (inactive); in [2], 9.73 µM (inactive); in experiment [3], > 10 µM (inactive); in experiment [4], > 10 µM (inactive); in experiment [5], > 10 µM (inactive); in experiment [15], > 10 µM (inactive). Further, the GI50 in experiment [6], in experiment [7], in experiment [8], in experiment [9], in experiment [10] and in [11] was > 10 µM (inactive) throughout. Moreover, in [14], the GI50 is > 10 µM (inactive).

On to `O=C(NC(COC(=O)C(Cc1ccccc1)NC(=O)c1ccccc1)Cc1ccccc1)c1ccccc1` (configuration not stated), for which the GI50 in [3] was 35 µM (inactive); in experiment [4], > 50 µM (inactive); in experiment [15], > 50 µM (inactive); in experiment [6], > 50 µM (inactive); in [7], > 50 µM (inactive); in experiment [8], > 50 µM (inactive). Further, the GI50 in experiment [9], in experiment [10], in [12] and in [13] was > 50 µM (inactive) in each case.

`CCCCC1=C(C(=O)N2CCOCC2)C2(OCCO2)C1=O`: the GI50 was 22.2 µM (inactive) in experiment [1]; 33.9 µM (inactive) in experiment [2]; 31.3 µM (inactive) in experiment [3]; 27.8 µM (inactive) in experiment [4]; 44.6 µM (inactive) in [15]; 23.2 µM (inactive) in experiment [6]. Also, the GI50 in experiment [7] was 34.9 µM (inactive); in [8], 30.2 µM (inactive); in experiment [9], 31.8 µM (inactive); in experiment [10] it was 25.1 µM (inactive); in experiment [11], 21.4 µM (inactive); in experiment [12], 19.5 µM (inactive). In addition, the GI50 is 23.1 µM (inactive) in experiment [13] and 33 µM (inactive) in [14].
